Values quoted from earlier work, collected in PMC5588751 (Nanotheranostics, 2017).

System: blood-brain barrier (BBB)
Conditions: [20]

Substance: Ac-SHAVAS-NH2 [HAV4]
- Brain delivery of Gd-DTPA (small molecular weight marker) (dose-dependent manner, MRI, ref [17], [18]): significantly enhanced
- Duration of BBB opening for Gd-DTPA (small molecule) (pretreatment studies with Gd-DTPA detected by MRI, ref [18]): less than 1 h
